Results on 3 compounds are retold here after US20080299193A1, “Pharmaceutical composition comprising eszoplicone” (Lek Pharmaceuticals d.d., priority 2007, published 2008).

Data set [1] in a line: Solubility of eszopiclone in phosphate buffer media at pH 6.8. Type of data set: physicochemical. On the procedure:
Substance containing larger particles has in general lower surface area which may result in decreased water solubility and consequently in decreased biological activity due to impaired absorption from the gastrointestinal tract. […] The solubility was measured at pH 6.8, which represents the pH in the small intestine, a primary site of drug absorption. Therefore, no effect on the gastrointestinal absorption can be expected due to larger particles of eszopiclone.
The solubility of eszopiclone in phosphate buffer media at pH 6.8 was studied at room temperature. An excess of sample was placed in the laboratory beaker filled with 50 ml media and mixed on the magnetic stirrer for 60 minutes. Afterwards, the part of the dispersion was taken from the beaker, filtered through the 0.45 μm filter and the concentration of eszopiclone was determined by UV spectroscopy.

A short description of data set [2]: Stress stability testing at 60° C. for 14 days, impurities by HPLC. Type of data set: physicochemical. On the procedure:
Tablets comprising eszopiclone with different particle sizes were prepared and exposed to stress stability testing at 60° C. for 14 days, stored in vials. The amount of formed degradation products was compared to the sample of commercially available tablets comprising eszopiclone (Lunesta®).
The HPLC analysis were performed with a WATERS Acquity UPLC system equipped with a UPLC BEH Shield, 1.7 μm, 50×2.1 mm column which was maintained in a column oven at 45° C. The mobile phase consisted of a mixture of ammonium acetate, TEA and acetonitrile with pH=5.8. The flow rate was 1.0 mL/min, and the detection wavelength was 303 nm.
All impurities eluted within 21 minutes represent the total amount of eszopiclone impurities.

≈ marks a conversion by molar mass, not a printed value. A value given as a limit tells only on which side of the number the result lay.

`CN1CCN(C(=O)O[C@H]2c3nccnc3C(=O)N2c2ccc(Cl)cn2)CC1` [Eszopiclone with d(0.9) = 32.4 μm]: the Solubility (in general, the concentration that dissolves in the medium under given conditions) at pH 6.8 in data set [1] (phosphate buffer pH 6.8, room temperature, 60 minutes stirring, filtered 0.45 μm, UV spectroscopy) is reported as 0.44 mg/ml.
`CN1CCN(C(=O)O[C@H]2c3nccnc3C(=O)N2c2ccc(Cl)cn2)CC1` [Eszopiclone with d(0.9) > 200 μm]: the “Solubility compared to substance having fine particles (in words)” value in data set [1] (pH 6.8) is recorded as “comparable”. In data set [1] (phosphate buffer, pH 6.8, aqueous buffer, thermodynamic from solid, phosphate buffer pH 6.8, room temperature, 60 minutes stirring, filtered 0.45 μm, UV spectroscopy), the solubility (in general, the dissolved amount per volume that the medium holds) at 60 min came to 570 µg/mL (≈ 1470 µM).
`CN1CCN(C(=O)O[C@H]2c3nccnc3C(=O)N2c2ccc(Cl)cn2)CC1` [Substance in a crystal form, (+)-5(S)-6-(chloropyridin-2-yik)-7-oxo-6,7-dihydro-5H-pyrrolo[3,4-b]pyrazin-5-yl 4-methylpiperazine-1-carboxylate]: the “Stability at elevated temperature (in words)” value in data set [2] (60° C. for 14 days) was “stable”. Besides, the “Total sum of impurities” value in data set [2] (14 days, 60° C., stored in vials, all impurities eluted within 21 minutes) is given as <0.05%. Besides, in data set [2] (14 days, 60° C., stored in vials, maximum unknown impurity), the Max. unknown was <0.05%.
